Test results as given in patent US20070191402A1, “Method of searching substrate having antidiabetic activity” (KYOWA HAKKO KOGYO CO., LTD., priority 2002, published 2007).

system: MIN6 cell; test: Insulin secretion test using MIN6 cell; type: cell-based, murine; details: 10 μmol/l; promoted insulin secretion level of Compound 16 = 100%
Procedure: Culturing MIN6 cell and testing insulin secretion using MIN6 cell were carried out according to the method described in Diabetorogia, 36, 1139-1145 (1993).
In other words, the influence of a compound on the insulin secretion activity in the presence of 14.5 mmol/l glucose was assessed by assaying the amount of insulin in the cell culture supernatant collected as follows.
The MIN6 cell cultured in a 24-well plate was washed twice with 1 ml of buffer A [119 mmol/l NaCl, 4.74 mmol/l KCl, 2.54 mmol/l CaCl2, 1.19 mmol/l MgSO4, 1.19 mmol/l KH2PO4, 10 mmol/l 2-[4-(2-hydroxylethyl)-1-piperadinyl]ethanesulfonic acid, 0.1% BSA, pH 7.3] containing 2 mmol/l glucose. Subsequently, the resulting cell was incubated in 1 ml of the buffer A containing 2 mmol/l glucose at 37° C. for 45 minutes. The culture supernatant was exchanged with the buffer A (1 ml) containing test compounds of various concentrations and 8.4 mmol/l glucose and incubated at 37° C. for 45 minutes to collect the culture supernatant.
Antibody-reactive insulin secreted in the culture supernatant was assayed by radioimmunoassay [Methods in Investigative and Diagnostic Endocrinology, Vol. 2A, 2B, North-Holland Publishing Co., Amsterdam (1973)] after the culture supernatant was diluted with phosphate buffer containing 1% BSA, 0.1% Tween 20, 0.12% EDTA 2Na, and 0.1% sodium azide. A standard curve was prepared by using human insulin as the standard substance, and individual insulin values were calculated on the basis of the curve.

SMILES | Insulin secretion-promoting activity (%)
CNc1nc(NC(C)(C)C)nc(NC(C)(C)C)n1 [compound 193] | 194.8%
CC(C)(C)Nc1nc(NC(C)(C)C)nc(N2CCOCC2)n1 [compound 194] | 122.7%
C1=CC2N=CN(c3nc(-n4cnc5ccccc54)nc(-n4cnc5ccccc54)n3)C2C=C1 (centres unmarked) [compound 197] | 31.9%
CN(C)c1nc(NC(C)(C)C)nc(NC(C)(C)C)n1 [compound 198] | 30.6%

same assay, conditions: MIN6 cell; glucose 14.5 mmol/l or 8.4 mmol/l

SMILES | Insulin secretory activity (%)
CCCN1C(=O)N2CC(CCc3ccccc3)N=C2c2[nH]c(C3CCCC3)nc21 (centres unmarked) [compound 31] | 80.5%
CCCN1C(=O)N2CC(Cc3ccccc3)N=C2c2[nH]c(C3CC3)nc21 (centres unmarked) [compound 36] | 47.0%
CCCN1C(=O)N2CC(Cc3ccccc3)N=C2c2[nH]c(C3CCC3)nc21 (centres unmarked) [compound 37] | 61.0%
CCCN1C(=O)N2CC(Cc3ccccc3)N=C2c2[nH]c(C3CCCCC3)nc21 (centres unmarked) [compound 38] | 83.0%
CCCN1C(=O)N2CC(Cc3ccccc3)N=C2c2[nH]c(CC3CCCC3)nc21 (centres unmarked) [compound 40] | 76.3%
CCCN1C(=O)N2CC(Cc3ccccc3)N=C2c2[nH]c(C(C)C)nc21 (centres unmarked) [compound 41] | 37.2%
CCCN1C(=O)N2CC(Cc3ccccc3)N=C2c2[nH]c(C(C)(C)C)nc21 (centres unmarked) [compound 43] | 54.4%
CCCN1C(=O)N2CC(Cc3cccc(C)c3)N=C2c2[nH]c(C3CCCC3)nc21 (centres unmarked) [compound 61] | 80.4%
CCCN1C(=O)N2CC(Cc3ccc(O)cc3)N=C2c2[nH]c(C3CCCC3)nc21 (centres unmarked) [compound 76] | 16.9%
CN1C(=O)N2CC(Cc3ccccc3)N=C2c2[nH]c(C3CCCC3)nc21 (centres unmarked) [compound 84] | 31.7%
O=C1N2CC(Cc3ccccc3)N=C2c2[nH]c(C3CCCC3)nc2N1c1ccccc1 (centres unmarked) [compound 85] | 26.7%
CCCN1C(=O)N2CC(Cn3cncn3)N=C2c2[nH]c(C3CCCC3)nc21 (centres unmarked) [compound 116] | −1.7%
CCCN1C(=O)N2CC(Cn3cccc3)N=C2c2[nH]c(C3CCCC3)nc21 (centres unmarked) [compound 117] | 43.5%
CCCN1C(=O)N2CC(Cc3ccccc3)N=C2c2[nH]c(COCC)nc21 (centres unmarked) [compound 138] | 7.8%
CCCN1C(=O)N2CC(Cc3ccccc3)N=C2c2[nH]c(C3CCCO3)nc21 (centres unmarked) [compound 144] | 28.5%
CCCN1C(=O)N2CC(Cc3ccccc3)N=C2c2[nH]c(C3CCC(O)CC3)nc21 (centres unmarked) [compound 147] | 45.6%
O=C1N2CC(Cc3ccccc3)N=C2c2[nH]c(C3CCCC3)nc2N1Cc1ccc(F)cc1 (centres unmarked) [compound 175] | 54.7%
CCCN1C(=O)N2CC(Cc3ccccc3)N=C2c2[nH]c(C)nc21 (centres unmarked) [compound 183] | 22.5%
CCCc1nc2c([nH]1)C1=NC(Cc3ccccc3)CN1C(=O)N2CCC (centres unmarked) [compound 184] | 75.0%
CCCc1nc2c([nH]1)C1=NC(Cc3ccc(C#N)cc3)CN1C(=O)N2CCC (centres unmarked) [compound 185] | 30.7%
CCCN1C(=O)N2CC(Cc3ccc(F)cc3)N=C2c2[nH]c(C3CCCC3)nc21 (centres unmarked) [compound 187] | 85.0%
CCCN1C(=O)N2CC(Cc3ccc(C(=O)O)cc3)N=C2c2[nH]c(C3CCCC3)nc21 (centres unmarked) [compound 188] | −8.0%
O=C1N2CC(Cc3ccccc3)N=C2c2[nH]c(C3CCCC3)nc2N1CCCO (centres unmarked) [compound 189] | 44.9%

same assay, conditions: promoted insulin secretion level of Compound 16 = 100%

SMILES | promoted insulin secretion level
CNc1nc(NC(C)(C)C)nc(NC(C)(C)C)n1 [compound 193] | 195%

system: pancreatic β cell (MIN6 cell); test: Inhibition of binding of [3H]-labeled Compound 16 to pancreatic β cell; parameters: species or system murine; details: at 10 μmol/l
Procedure: MIN6 cell cultured to almost confluence in a 24-well plate for cell culture (manufactured by Corning) was washed twice with KRH buffer (119 mmol/l NaCl, 4.74 mmol/KCl, 2.54 mmol/l calcium chloride (CaCl2), 1.19 mmol/l magnesium sulfate (MgSO4), 1.19 mmol/l potassium dihydrogen phosphate (KH2PO4), 10 mmol/l HEPES, 2 mmol/l glucose, 0.1 w/v % bovine serum albumin (BSA), pH 7.3). Subsequently, the KRH buffer was added at 1 ml per well, for preincubation at 37° C. for 45 minutes. After preincubation, the supernatant was discarded, and 0.15 ml of the KRH buffer, […] at 4° C. for one hour or longer until the reaction reached equilibrium. Subsequently, the cell was washed twice using the KRH buffer. The KRH buffer was added at 2 ml per well, which was then left to stand at room temperature for 20 minutes. The cell was again washed twice by using the KRH buffer. The radioactivity remaining in each well was counted with a liquid scintillation counter to determine the binding amount.
The difference between the binding amount of the [^3H]-labeled Compound 16 (total binding amount) under conditions with no addition of any test compound and the binding amount of the [^3H]-labeled Compound 16 (non-specific binding amount) under conditions in the presence of the Compound 16 at 10 μmol/l was defined as specific binding amount.
According to the method described in Example 5, a substance having anti-diabetic activity was screened for, using the inhibitory activity of the binding between pancreatic β cells and [^3H]-labeled Compound 16. A tested substance was dissolved in dimethylsulfoxide and then added to give a final concentration of 1 μmol/l. The radioactivity with addition of the unlabeled Compound 16 was defined as the non-specific binding amount and the radioactivity without addition of the unlabeled Compound 16 was defined as the total binding amount, and then the individual specific binding amounts were calculated by the method described in Example 6. Using the following formula, the binding inhibition ratio was determined. [formula]

SMILES | inhibition ratio (binding of [3H]-labeled Compound 16 to pancreatic β cells)
CNc1nc(NC(C)(C)C)nc(NC(C)(C)C)n1 [compound 193] | 84%

same assay, conditions: pancreatic β cells, [3H]-labeled Compound 16; tested substance 1 μmol/l or 10 μmol/l

SMILES | Binding inhibition (%)
CNc1nc(NC(C)(C)C)nc(NC(C)(C)C)n1 [compound 193] | 84.0%
CC(C)(C)Nc1nc(NC(C)(C)C)nc(N2CCOCC2)n1 [compound 194] | 78.1%
C1=CC2N=CN(c3nc(-n4cnc5ccccc54)nc(-n4cnc5ccccc54)n3)C2C=C1 (centres unmarked) [compound 197] | 15.0%
CN(C)c1nc(NC(C)(C)C)nc(NC(C)(C)C)n1 [compound 198] | 99.0%

same assay, conditions: test compound 1 μmol/l; 10 nmol/l [3H]-labeled Compound 16; MIN6 cell, 4° C.

SMILES | Binding inhibitory activity (%)
CCCN1C(=O)N2CC(CCc3ccccc3)N=C2c2[nH]c(C3CCCC3)nc21 (centres unmarked) [compound 31] | 112.4%
CCCN1C(=O)N2CC(Cc3ccccc3)N=C2c2[nH]c(C3CC3)nc21 (centres unmarked) [compound 36] | 57.9%
CCCN1C(=O)N2CC(Cc3ccccc3)N=C2c2[nH]c(C3CCC3)nc21 (centres unmarked) [compound 37] | 73.7%
CCCN1C(=O)N2CC(Cc3ccccc3)N=C2c2[nH]c(C3CCCCC3)nc21 (centres unmarked) [compound 38] | 71.8%
CCCN1C(=O)N2CC(Cc3ccccc3)N=C2c2[nH]c(CC3CCCC3)nc21 (centres unmarked) [compound 40] | 38.5%
CCCN1C(=O)N2CC(Cc3ccccc3)N=C2c2[nH]c(C(C)C)nc21 (centres unmarked) [compound 41] | 55.0%
CCCN1C(=O)N2CC(Cc3ccccc3)N=C2c2[nH]c(C(C)(C)C)nc21 (centres unmarked) [compound 43] | 77.6%
CCCN1C(=O)N2CC(Cc3cccc(C)c3)N=C2c2[nH]c(C3CCCC3)nc21 (centres unmarked) [compound 61] | 50.8%
CCCN1C(=O)N2CC(Cc3ccc(O)cc3)N=C2c2[nH]c(C3CCCC3)nc21 (centres unmarked) [compound 76] | 12.6%
CN1C(=O)N2CC(Cc3ccccc3)N=C2c2[nH]c(C3CCCC3)nc21 (centres unmarked) [compound 84] | 66.4%
O=C1N2CC(Cc3ccccc3)N=C2c2[nH]c(C3CCCC3)nc2N1c1ccccc1 (centres unmarked) [compound 85] | 72.0%
CCCN1C(=O)N2CC(Cn3cncn3)N=C2c2[nH]c(C3CCCC3)nc21 (centres unmarked) [compound 116] | 7.9%
CCCN1C(=O)N2CC(Cn3cccc3)N=C2c2[nH]c(C3CCCC3)nc21 (centres unmarked) [compound 117] | 68.6%
CCCN1C(=O)N2CC(Cc3ccccc3)N=C2c2[nH]c(COCC)nc21 (centres unmarked) [compound 138] | 60.7%
CCCN1C(=O)N2CC(Cc3ccccc3)N=C2c2[nH]c(C3CCCO3)nc21 (centres unmarked) [compound 144] | 50.5%
CCCN1C(=O)N2CC(Cc3ccccc3)N=C2c2[nH]c(C3CCC(O)CC3)nc21 (centres unmarked) [compound 147] | 56.8%
O=C1N2CC(Cc3ccccc3)N=C2c2[nH]c(C3CCCC3)nc2N1Cc1ccc(F)cc1 (centres unmarked) [compound 175] | 49.5%
CCCN1C(=O)N2CC(Cc3ccccc3)N=C2c2[nH]c(C)nc21 (centres unmarked) [compound 183] | 41.6%
CCCc1nc2c([nH]1)C1=NC(Cc3ccccc3)CN1C(=O)N2CCC (centres unmarked) [compound 184] | 78.5%
CCCc1nc2c([nH]1)C1=NC(Cc3ccc(C#N)cc3)CN1C(=O)N2CCC (centres unmarked) [compound 185] | 38.4%
CCCN1C(=O)N2CC(Cc3ccc(F)cc3)N=C2c2[nH]c(C3CCCC3)nc21 (centres unmarked) [compound 187] | 73.5%
CCCN1C(=O)N2CC(Cc3ccc(C(=O)O)cc3)N=C2c2[nH]c(C3CCCC3)nc21 (centres unmarked) [compound 188] | −7.6%
O=C1N2CC(Cc3ccccc3)N=C2c2[nH]c(C3CCCC3)nc2N1CCCO (centres unmarked) [compound 189] | 56.4%
